In US9723844B2, “Synergistic Bacillus thuringiensis subsp. aizawai, Bacillus thuringiensis subsp. kurstaki and chlorantraniliprole mixtures for diamondback moth, beet armyworm, sugarcane borer, soybean looper, corn earworm, cabbage looper, and southwestern corn borer control” (Valent BioSciences Corporation, priority 2015, dated 2017):
Where two headings read alike, the source gives them in different places.

What was measured:
beet armyworm larvae = assay: Leaf dip test, beet armyworm larvae; assay type: in vivo; details: Spodoptera exigua, foliar, Bta/Btk 1.69 ppm, chlorantraniliprole 0.0009 ppm, read-out: % Efficacy
Excerpt: (§1) The following examples were used to determine the synergy of Bacillus thuringiensis subsp. aizawai, Bacillus thuringiensis subsp. kurstaki and chlorantraniliprole when controlling diamondback moth, beet armyworm, sugarcane borer, soybean looper, corn earworm, cabbage looper, and southwestern corn borer. Sympatico™ emulsifiable suspension (available from Valent BioSciences Corporation) was used as the source of Bacillus thuringiensis subsp. aizawai and Bacillus thuringiensis kurstaki. Sympatico™ contains about a 1:0.67 ratio of Bacillus thuringiensis subsp. kurstaki fermentation solids, spores and toxins to Bacillus thuringiensis subsp. aizawai fermentation solids, spores and toxins. Coragen® was used as the source of chlorantraniliprole. The present invention is not limited to the commercial products used in the examples. In each example below, the studies were conducted as follows.
(§2) For these tests, standardized laboratory leaf dip methods were used to inoculate plant material with treatment(s). Dry, treated leaves were placed into Petri dishes (100×25 mm) containing filter paper wetted with 500 μl of distilled H2O (“dH2O”). Each dish was then infested with between 5 and 10 larvae, dependent on species. Efficacy ratings were taken at specified intervals. Synergy ratings were calculated for each test. […]

corn earworm larvae = assay: Leaf dip test, corn earworm larvae; assay type: in vivo; details: Helicoverpa zea, foliar, Bta/Btk 5.4 ppm, chlorantraniliprole 0.0009 ppm, read-out: % Efficacy
Excerpt: as §1, §2

sugarcane borer larvae = assay: Leaf dip test, sugarcane borer larvae; assay type: in vivo; details: Diatraea saccharalis, foliar, Bta/Btk 1.69 ppm, chlorantraniliprole 0.0009 ppm, read-out: % Efficacy
Excerpt: as §1, §2

cabbage looper larvae = assay: Leaf dip test, cabbage looper larvae; assay type: in vivo; details: Trichoplusia ni, foliar, Bta/Btk 1.69 ppm, chlorantraniliprole 0.0009 ppm, read-out: % Efficacy
Excerpt: as §1, §2

soybean looper larvae = assay: Leaf dip test, soybean looper larvae; assay type: in vivo, Chrysodeixis includens; details: foliar, Bta/Btk 0.54 ppm, chlorantraniliprole 0.045 ppm, read-out: % Efficacy
Excerpt: as §1, §2

diamondback moth larvae = assay: Leaf dip test, diamondback moth larvae; assay type: in vivo; details: Plutella xylostella, foliar, Bta/Btk 1.69 ppm, chlorantraniliprole 0.0009 ppm, read-out: % Efficacy
Excerpt: as §1, §2

[1] = tested on: southwestern corn borer larvae; assay: Leaf dip test, southwestern corn borer larvae; assay type: in vivo, Diatraea grandiosella; details: foliar, Bta/Btk 1.69 ppm, chlorantraniliprole 0.0009 ppm, read-out: % Efficacy
Excerpt: as §1, §2

## CNC(=O)c1cc(Cl)cc(C)c1NC(=O)c1cc(Br)nn1-c1ncccc1Cl [Chlorantraniliprole]
Beet armyworm larvae; 24 h after treatment
  Emax at 0.0009 ppm: 3%
Beet armyworm larvae; 48 h after treatment
  Emax at 0.0009 ppm: 7%
Corn earworm larvae; 24 h after treatment
  Emax at 0.0009 ppm: 3%
Corn earworm larvae; 48 h after treatment
  Emax at 0.0009 ppm: 3%
Sugarcane borer larvae; 24 h after treatment
  Emax at 0.0009 ppm: 3%
Sugarcane borer larvae; 48 h after treatment
  Emax at 0.0009 ppm: 13%
Cabbage looper larvae; 24 h after treatment
  Emax at 0.0009 ppm: 3%
Cabbage looper larvae; 48 h after treatment
  Emax at 0.0009 ppm: 10%
Soybean looper larvae; 24 h after treatment
  Emax at 0.045 ppm: 3%
Soybean looper larvae; 48 h after treatment
  Emax at 0.045 ppm: 14%
Diamondback moth larvae; 24 h after treatment
  Emax at 0.0009 ppm: 7%
Diamondback moth larvae; 48 h after treatment
  Emax at 0.0009 ppm: 13%
[1]; 24 h after treatment
  Emax at 0.0009 ppm: 3%
[1]; 48 h after treatment
  Emax at 0.0009 ppm: 3%
